Our source for the viability, T/C and IC50 values is PubChem BioAssay AID1963448 (Molecular Pharmacology Branch, DTP, NCI, 2024).

Structures are written as SMILES.

The experiment deals with 616215-338-R-J1-PDC complex spheroid growth, % test/control. Put plainly: Anticancer human tumor 616215-338-R-J1-PDC patient-derived colon adenocarcinoma cell line growth inhibition [Asc]. As to conditions: for viability, T/C: stronger effect = lower value. The gist of the method: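 Concentration series start at each agent's clinical Cmax, or at 10 microM when none is established, and drop in half-log steps; agents are applied alone or together to complex spheroids built with HUVEC and hMSC.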
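Also: spheroids exposed to agents for seven days before readout.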
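For viability, T/C in this document: 100% = DMSO vehicle control viability.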

As a reminder, the viability, T/C is the ratio of treated to control. One may read the IC50 as the midpoint of a concentration-inhibition curve. As to `Cc1c(S(C)(=O)=O)c(-c2cc(F)cc(N3CCN(c4ccc(NS(=O)(=O)c5ccc(NC(CCN6CCC(C(=O)OCCCP(=O)(O)O)CC6)CSc6ccccc6)c(S(=O)(=O)C(F)(F)F)c5)cc4)CC3)c2)c(-c2ccc(Cl)cc2)n1C(C)C` (stereo unspecified), the viability, T/C runs as follows: (compound 0.1 µM) 89.8% [middle of 14 runs]; (compound 0.316 µM) 88.1% [middle of 14 runs]; (compound 1 µM) 69.6% [middle of 14 runs]; (compound 3.16 µM) 38% [middle of 13 runs]; (compound 10 µM) 27.6% [middle of 14 runs]. The IC50 (compound alone, run of 10/11/2022) was 1.96 µM [middle of 13 runs].
